Test results reported in paper doi:10.1101/2025.04.25.650653, “Hierarchical small molecule inhibition of MYST acetyltransferases” (bioRxiv, 2025).
Values joined by “and” are separate entries in the source; they are usually repeats but may differ in a detail not shown here. Identical values can stand only once.

Tests used:
[1] = tested on: proteins captured by H3K14-CoA resin from HeLa nuclear extracts; assay: Proteome-wide competitive chemoproteomic profiling (H3K14-CoA beads, TMT LC-MS/MS); assay type: binding; conditions: for Log2FC PF9363-100nM / PF9363-0nM / Log2FC PF9363-1000nM / PF9363-0nM / Log2FC PF9363-10000nM / PF9363-0nM: H3K14-CoA beads, TMT
H3K23Ac (KAT6A/B) = assay: Histone biomarker bottom-up LC-MS/MS, MCF-7; assay type: cell-based; conditions: for Ratio, H3_18_26 K23ac: Replicates 1-3
Description: In this approach. […] Histones are then extracted from cell pellets and chemically derivatized with propionic anhydride, digested with trypsin, subjected to a second round of propionylation, and analyzed by LC-MS/MS. Measuring the relative intensity of modified versus unmodified forms of individual histone peptides enables simultaneous monitoring of multiple potential biomarkers of MYST inhibition. To minimize false positives, we focused on abundant and reproducible modifications (average stoichiometry of greater than 1% across triplicate samples, standard deviation less than or equal to the average measurement). To account for potential histone modification crosstalk, changes in both acetylated and methylated peptides were evaluated. 38 modified peptides passed this reproducible detection threshold including several established KAT biomarkers[41] including H3K9Ac (KAT2A/B), H3K18Ac (KAT3A/B), H3K14Ac (KAT7), H3K23Ac (KAT6A/B), H4K16Ac (KAT8), and H2A.ZK4/K7Ac (KAT5; Fig. 4B).
Genetic perturbations have unambiguously determined the dependence of H3K23Ac on KAT6A/B.[9], [41] The H3K23Ac biomarker critically complements chemoproteomics by allowing sensitive assessment of KAT6A and KAT6B activity, whose active site occupancy is otherwise difficult to assess. […] This is significant since several studies have used H3K9Ac as a proxy for KAT6A/B inhibition (Table S7),[8], [42] even though its regulation is most commonly attributed to KAT2A/B.[41] Since LC-MS/MS assays require specialized equipment and technical expertise, we also validated a panel of histone acetylation antibodies that recapitulate the dose-dependent inhibition of MYST targets by western blot (Fig. 4E). […]
nuclei were pelleted by centrifugation (600 rcf, 4°C, 5 min). Pelleted nuclei were washed twice with 150 μL of detergent-free NIB buffer, followed by centrifugation (600 rcf, 4°C, 5 min) to remove all detergent.
Nuclei were then resuspended in 400 μL of 0.4 N H₂SO₄ and rotated at 4°C overnight for acid extraction of histones. The following day, samples were centrifuged (11,000 rcf, 4°C, 10 min) and the histone-containing supernatant was transferred to a fresh tube. Trichloroacetic acid (100% TCA) was added to achieve a final concentration of 20% (v/v), tubes were inverted once to mix, and histone precipitation was performed on ice for at least 3 hours or overnight at 4°C. Precipitated histones were collected by centrifugation (11,000 rcf, 4°C, 10 min) and the supernatant carefully removed, leaving a visible film of histones on the tube wall or bottom. Histone pellets were subjected to sequential washes with 1 mL of ice-cold acidified acetone (0.1% 12 N HCl) followed by 1 mL of 100% ice-cold acetone, with centrifugation (11,000 rcf, 4°C, 5 min) after each wash. Samples were air-dried at room temperature, resuspended in 40 µL of ddH₂O, and protein […]
analysis, 1-2 µg of purified histones were loaded per lane and processed according to the general immunoblotting protocol described in General Materials and Methods.
Analysis of histone modifications by LC-MS/MS
Preparation of histone samples for LC-MS/MS was performed analogously to the procedure for immunoblotting above, with the following modifications. MCF7 cells (4.2 × 106) were seeded in 15 cm dishes and treated with PF-9363 or vehicle. Experiments were performed in triplicate. Following treatment and PBS washing, cells were scraped and collected in 15 mL falcon tubes, pelleted (500 rcf, 4°C, 5 min), resuspended in 1 mL cold PBS, transferred to microcentrifuge tubes, and pelleted again before flash-freezing in liquid nitrogen for storage at -80°C. For extraction, cell pellets (~100 μL) were resuspended in NIB buffer at a 1:10 ratio, and cells were lysed with NIB buffer containing 0.2% NP-40 for 8 minutes on ice. Nuclei were pelleted at 1,000 rcf for 8 minutes and washed three times with 500 μL detergent-free NIB

BT-549 cells = assay: ATP-based viability assay (CellTiter-Glo); assay type: cell-based; conditions: Homo sapiens; BT-549, ATP-Glo assay, 72 h, n=4
Description: Figure 6. […] (C) Dependence of breast cancer cell lines on non-MYST KATs (EP300, CREBBP), MYST KATs (KAT6A, KAT6B, KAT7, KAT8, KAT5), and a MYST KAT complex member (BRPF1) derived from on DepMap CRISPR screening data. BT-549 is highlighted in orange. Lower CERES score indicates a greater dependence of the cell line on the specified gene. […] Data is representiative of n=2 biological replicates.
Analysis of DepMap-derived CRISPR screening data supports the notion that while breast cancer models vary widely in their requirement for EP300 and CREBBP, BT-549 appears to a fairly independent line. […]
(0.01, 0.1, 1, 10, 100 μM) for 48 hours and analyzed by sulforhodamine B assay for growth inhibition as previously described.12-14 o validate the NCI-60 relative activity trends using an orthogonal method, we […]
0.94, 0.47, 0.23, 0 μM) for 96 hours. Experiments were performed in quadruplicate, and cell viability was measured using CellTiter-Glo® Luminescent Cell Viability Assay (Promega, G7572) according to the manufacturer's instructions. Luminescence signals were recorded on a BioTek Synergy 2 plate reader, and results were normalized to vehicle-treated controls (set to 100%). Half-maximal inhibition values (IC₅₀) were determined from nonlinear regression analysis of dose-response curves using GraphPad Prism 9. […]

**Q.** Which results are given for COc1cccc(OC)c1S(=O)(=O)Nc1noc2cc(Cn3cccn3)cc(OC)c12 [PF-9363]?
**A.** competition of capture of NAT10, ESCO1, KAT2B (other clusters) ([1]; 0, 0.1, 1, 10 μM): relatively insensitive; Log2FC PF9363-100nM / PF9363-0nM ([1]; protein BLM (P54132)): 0.02; Log2FC PF9363-1000nM / PF9363-0nM ([1]; protein BLM (P54132)): 0.03; Log2FC PF9363-10000nM / PF9363-0nM ([1]; protein BLM (P54132)): 0.05; concentration at which BRPF3 capture is competed ([1]; protein BRPF3): 10 µM; Log2FC PF9363-100nM / PF9363-0nM ([1]; protein MKI67 (P46013)): -0.01; Log2FC PF9363-1000nM / PF9363-0nM ([1]; protein MKI67 (P46013)): -0.01; Log2FC PF9363-10000nM / PF9363-0nM ([1]; protein MKI67 (P46013)): 0.02; Log2FC PF9363-100nM / PF9363-0nM ([1]; protein NUMA1 (Q14980)): 0.02; Log2FC PF9363-1000nM / PF9363-0nM ([1]; protein NUMA1 (Q14980)): 0.05; Log2FC PF9363-10000nM / PF9363-0nM ([1]; protein NUMA1 (Q14980)): 0.06; Log2FC PF9363-100nM / PF9363-0nM ([1]; protein TRRAP (Q9Y4A5)): -0.05; Log2FC PF9363-1000nM / PF9363-0nM ([1]; protein TRRAP (Q9Y4A5)): -0.12; Log2FC PF9363-10000nM / PF9363-0nM ([1]; protein TRRAP (Q9Y4A5)): -0.22; reduction of H3K23Ac (H3K23Ac (KAT6A/B); 0.1 μM, 24 h, MCF-7 cells): ~ 80%; Fold-change 0.1 v 30, H3_18_26 K23ac (H3K23Ac (KAT6A/B); KAT marker KAT6A/B, PF-9363 0.1 v 30): 7.11; Average ratio, H3_18_26 K23ac (H3K23Ac (KAT6A/B); KAT marker KAT6A/B, PF-9363 (0.1 mM)): 0.0330; Average ratio, H3_18_26 K23ac (H3K23Ac (KAT6A/B); KAT marker KAT6A/B, PF-9363 (30 mM)): 0.0046; Ratio, H3_18_26 K23ac (H3K23Ac (KAT6A/B); KAT marker KAT6A/B, dose 0.1): 0.02851 and 0.03904 and 0.03134; Ratio, H3_18_26 K23ac (H3K23Ac (KAT6A/B); KAT marker KAT6A/B, dose 1): 0.02199 and 0.02064 and 0.0179; Ratio, H3_18_26 K23ac (H3K23Ac (KAT6A/B); KAT marker KAT6A/B, dose 10): 0.01047 and 0 and 0.009458; Ratio, H3_18_26 K23ac (H3K23Ac (KAT6A/B); KAT marker KAT6A/B, dose 30): 0 and 0.006901 and 0.007012; GI50 (BT-549 cells): ~7 µM
